Test results from patent US11111220B2, “Propanamine derivatives for treating pain and pain related conditions” (ESTEVE PHARMACEUTICALS, S.A., priority 2017, dated 2021).
Read-outs that look alike come from different tables or passages of the source.

What was measured:
[1] = biological target: Human α2δ-1 Subunit of Cav2.2 Calcium Channel (Homo sapiens, UniProt P54289); assay: Binding assay to human α2δ-1 subunit of Cav2.2 calcium channel ([3H]-Gabapentin); conditions: human α2δ-1 enriched membranes, 15 nM [3H]-Gabapentin, read-out: Ki(nM) alpha2delta Hum
Protocol: Binding Assay to Human α2δ-1 Subunit of Cav2.2 Calcium Channel.
Human α2δ-1 enriched membranes (2.5 μg) were incubated with 15 nM of radiolabeled [3H]-Gabapentin in assay buffer containing Hepes-KOH 10 mM, pH 7.4.
(§1) NSB (non specific binding) was measured by adding 10 μM pregabalin. The binding of the test compound was measured in five different concentrations. After 60 min incubation at 27° C., binding reaction was terminated by filtering through Multiscreen GF/C (Millipore) presoaked in 0.5% polyethyleneimine in Vacuum Manifold Station, followed by 3 washes with ice-cold filtration buffer containing 50 mM Tris-HCl, pH 7.4.
(§2) Filter plates were dried at 60° C. for 1 hour and 30 μl of scintillation cocktail were added to each well before radioactivity reading.
(§3) Readings were performed in a Trilux 1450 Microbeta radioactive counter (Perkin Elmer).

[2] = biological target: Human Norepinephrine Transporter (NET) (Homo sapiens, UniProt P23975); assay: Binding assay to human norepinephrine transporter (NET) ([3H]-Nisoxetin); conditions: Table 2 (dual compounds); human NET enriched membranes, 5 nM [3H]-Nisoxetin; read-out: Ki(nM) NET Hum
Protocol: Binding Assay to Human Norepinephrine Transporter (NET).
Human norepinephrine transporter (NET) enriched membranes (5 μg) were incubated with 5 nM of radiolabeled [3H]-Nisoxetin in assay buffer containing 50 mM Tris-HCl, 120 mM NaCl, 5 mM KCl, pH 7.4.
as §1, with “desipramine.” for “pregabalin.”, “4°” for “27°”, “Tris-HCl, 0.9% NaCl,” for “Tris-HCl,”
as §2, §3

Sequence of Human Norepinephrine Transporter (NET) (P23975 whole entry): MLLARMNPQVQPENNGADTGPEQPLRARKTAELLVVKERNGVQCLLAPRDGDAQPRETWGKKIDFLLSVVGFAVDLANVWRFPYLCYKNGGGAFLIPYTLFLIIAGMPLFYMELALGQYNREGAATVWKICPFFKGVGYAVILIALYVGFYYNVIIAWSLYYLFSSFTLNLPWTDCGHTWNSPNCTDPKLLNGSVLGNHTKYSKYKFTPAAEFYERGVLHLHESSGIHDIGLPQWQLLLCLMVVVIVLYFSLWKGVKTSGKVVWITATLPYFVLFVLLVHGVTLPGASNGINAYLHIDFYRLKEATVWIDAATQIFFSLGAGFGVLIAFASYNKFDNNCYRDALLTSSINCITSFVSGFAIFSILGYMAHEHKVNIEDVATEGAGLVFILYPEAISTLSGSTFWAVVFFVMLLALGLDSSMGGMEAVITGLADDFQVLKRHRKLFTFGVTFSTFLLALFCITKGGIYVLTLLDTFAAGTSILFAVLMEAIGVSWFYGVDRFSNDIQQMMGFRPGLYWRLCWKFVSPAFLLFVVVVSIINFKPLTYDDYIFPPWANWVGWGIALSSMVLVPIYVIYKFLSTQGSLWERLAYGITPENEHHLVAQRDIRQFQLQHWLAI
Sequence of Human α2δ-1 Subunit of Cav2.2 Calcium Channel (P54289 25-1103): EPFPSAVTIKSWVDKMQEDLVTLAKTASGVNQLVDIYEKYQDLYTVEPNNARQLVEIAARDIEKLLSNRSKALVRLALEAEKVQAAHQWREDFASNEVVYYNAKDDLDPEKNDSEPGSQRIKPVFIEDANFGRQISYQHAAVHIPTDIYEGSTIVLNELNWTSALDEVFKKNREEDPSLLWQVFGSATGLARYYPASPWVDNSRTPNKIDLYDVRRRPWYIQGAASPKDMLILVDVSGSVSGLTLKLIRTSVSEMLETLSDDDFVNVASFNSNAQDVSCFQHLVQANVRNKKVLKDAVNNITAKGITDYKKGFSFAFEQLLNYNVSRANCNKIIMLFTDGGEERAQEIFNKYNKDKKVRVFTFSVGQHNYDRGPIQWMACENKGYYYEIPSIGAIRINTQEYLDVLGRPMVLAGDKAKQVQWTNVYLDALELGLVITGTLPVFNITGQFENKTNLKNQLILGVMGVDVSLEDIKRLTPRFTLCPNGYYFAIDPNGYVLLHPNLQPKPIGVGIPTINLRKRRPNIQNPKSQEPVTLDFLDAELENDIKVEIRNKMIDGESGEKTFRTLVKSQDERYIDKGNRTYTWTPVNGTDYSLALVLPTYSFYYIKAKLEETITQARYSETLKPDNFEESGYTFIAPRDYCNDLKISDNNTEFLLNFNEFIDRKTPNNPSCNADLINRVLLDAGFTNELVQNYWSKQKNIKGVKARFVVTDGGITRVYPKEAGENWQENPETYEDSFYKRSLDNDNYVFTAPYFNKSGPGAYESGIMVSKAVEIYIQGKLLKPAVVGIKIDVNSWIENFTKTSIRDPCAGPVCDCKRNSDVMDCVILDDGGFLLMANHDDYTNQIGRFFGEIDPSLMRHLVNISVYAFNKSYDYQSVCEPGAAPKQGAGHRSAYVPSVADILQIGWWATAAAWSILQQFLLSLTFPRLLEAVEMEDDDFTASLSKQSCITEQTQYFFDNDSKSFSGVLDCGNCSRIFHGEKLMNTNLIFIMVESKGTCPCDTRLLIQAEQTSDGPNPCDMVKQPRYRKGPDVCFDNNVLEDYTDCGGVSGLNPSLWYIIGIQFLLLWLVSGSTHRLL

| Ki ([1]; Table 1) [nM] | Ki ([1]; Table 2 (dual compounds)) [nM] | Ki [2] [nM] | Compound |
| --- | --- | --- | --- |
| 500 to 3000 | 500 to 3000 | ≥ 1000 | CNCCC(Oc1cccc(C(=O)NC2CCN(C)CC2)c1)c1ccccc1 (stereo not drawn) [Example 22, 3-(3-(Methylamino)-1-phenylpropoxy)-N-(1-methylpiperidin-4-yl)benzamide] |
| ≥ 3000 | ≥ 3000 | 500 to 1000 | CNCCC(Oc1cccc(N(C)C(=O)c2cccc(CN)c2)c1)c1ccccc1 (stereo not drawn) [Example 27, 3-(Aminomethyl)-N-methyl-N-(3-(3-(methylamino)-1-phenylpropoxy)phenyl)benzamide] |
| ≥ 3000 | ≥ 3000 | 500 to 1000 | CNCCC(Oc1cccc(N(C)C(=O)CCCN)c1)c1ccccc1 (stereo not drawn) [Example 28, 4-Amino-N-methyl-N-(3-(3-(methylamino)-1-phenylpropoxy)phenyl)butanamide] |
| 500 to 3000 | 500 to 3000 | 500 to 1000 | CCNc1ncc(C(=O)N(C)c2cccc(COC(CCNC)c3cccs3)c2)c(N2CCCC2)n1 (stereo not drawn) [Example 38, 2-(Ethylamino)-N-methyl-N-(3-((3-(methylamino)-1-(thiophen-2-yl)propoxy)methyl)phenyl)-4-(pyrrolidin-1-yl)pyrimidine-5-carboxamide] |
| ≥ 3000 | ≥ 3000 | 500 to 1000 | CNCCC(OCc1cccc(NC(=O)c2ccccc2)c1)c1ccccc1 (stereo not drawn) [Example 39, N-(3-((3-(methylamino)-1-phenylpropoxy)methyl)phenyl)benzamide] |
| ≥ 3000 | ≥ 3000 | 500 to 1000 | CNCCC(OCc1cccc(NC(=O)c2cnc(OC)nc2)c1)c1ccccc1 (stereo not drawn) [Example 41, 2-Methoxy-N-(3-((3-(methylamino)-1-phenylpropoxy)methyl)phenyl)pyrimidine-5-carboxamide] |
| ≥ 3000 | ≥ 3000 | 500 to 1000 | CNCCC(OCc1cccc(NC(=O)c2ccccn2)c1)c1ccccc1 (stereo not drawn) [Example 43, N-(3-((3-(methylamino)-1-phenylpropoxy)methyl)phenyl)picolinamide] |
| ≥ 3000 | ≥ 3000 | 500 to 1000 | CNCCC(OCc1cccc(NC(=O)c2ccccc2)c1)c1cccs1 (stereo not drawn) [Example 46, N-(3-((3-(methylamino)-1-(thiophen-2-yl)propoxy)methyl)phenyl)benzamide] |
| ≥ 3000 | ≥ 3000 | 500 to 1000 | CNCCC(OCc1cccc(NC(=O)c2ccccc2F)c1)c1cccs1 (stereo not drawn) [Example 48, 2-Fluoro-N-(3-((3-(methylamino)-1-(thiophen-2-yl)propoxy)methyl)phenyl)benzamide] |
| ≥ 3000 | ≥ 3000 | 500 to 1000 | CCNc1ncc(C(=O)Nc2cccc(OC(CCNC)c3ccccc3)c2)c(N2CCCC2)n1 (stereo not drawn) [Example 50, 2-(Ethylamino)-N-(3-(3-(methylamino)-1-phenylpropoxy)phenyl)-4-(pyrrolidin-1-yl)pyrimidine-5-carboxamide] |
| ≥ 3000 | ≥ 3000 | 100 to 500 | CNCCC(OCc1cccc(Nc2ccccc2)c1)c1ccccc1 (stereo not drawn) [Example 58, 3-((3-(Methylamino)-1-phenylpropoxy)methyl)-N-phenylaniline] |
| ≥ 3000 | ≥ 3000 | 100 to 500 | CNCCC(Oc1ccc(CN(C)Cc2ccccc2)c(F)c1)c1cccs1 (stereo not drawn) [Example 70, 3-(4-((Benzyl(methyl)amino)methyl)-3-fluorophenoxy)-N-methyl-3-(thiophen-2-yl)propan-1-amine] |
| ≥ 3000 | ≥ 3000 | < 100 | CNCCC(Oc1ccc(CNCc2ccccc2)c(F)c1)c1cccs1 (stereo not drawn) [Example 71, 3-(4-((Benzylamino)methyl)-3-fluorophenoxy)-N-methyl-3-(thiophen-2-yl)propan-1-amine] |
